Results from US20040167226A1, “Methods for the treatment of pain and traumatic injury using benzamides and compositions containing the same” (priority 2002, published 2004).
“Also recorded” adds a separate entry of the source.

Legend:
[1] = Solubility of Compound A in dosing vehicles; format: physicochemical
Procedure: PEG-200 formulation for i.p. administration of Compound A: PEG-200 was diluted in deionized destilled water to give a final concentration of 75% (volume/volume). Compound A was weighed to yield a final concentration of 10 mg/ml in 75% PEG-200 vehicle and sonicated for 12×30 seconds with 5 second intervals on ice to generate a Compound A suspension. 100 μL of either Compound A suspension or control vehicle (75% PEG-200) per 20 grams of mice (body weight) was administered via i.p., thus yielding a dose of 50 mg/kg (body weight).
Cremophor EL/alcohol/saline formulation for i.p. administration of Compound A: 40 mg/ml, 20 mg/ml or 10 mg/ml of Compound A was dissolved in Cremophor EL/alcohol (90:10) (volume:volume), respectively, by brief sonication on ice, then freshly diluted 10-fold in saline solution (9% Cremophor EL; 1% ETOH and 90% saline) to give a final concentration of 4 mg/ml, 2 mg/ml and 1 mg/ml, respectively, before injection. 100 μL of Compound A solution at a concentration of […] was administered via i.p. to mice (per 20 grams of body weight), thus yielding a dose of 20 mg/kg (body weight), 10 mg/kg (body weight), and 5 mg/kg (body weight), respectively. The control vehicle was 9% Cremophor EL/1% ETOH/90% saline. […]

[2] = system: dorsal hemisection spinal cord injury; test: Spinal cord injury, T8 dorsal hemisection / over dorsal hemisection, BBB locomotor score; format: in vivo, Sprague-Dawley rats; conditions: rats
Procedure: (§1) Compound A was tested in both the rat dorsal hemisection (Guth, L. et al. (1980), J. Neurosurgery 52: 73-86) and contusion models (Scheff, S. W. (2003), J. Neurotrauma 20: 179-193) for evaluation of efficacy. These models are widely used in the field of spinal cord injury and replicate many of the pathological aspects found in humans who have sustained a spinal cord injury. Rats were subjected to an experimental spinal cord injury at T8, and were given Compound A shortly thereafter. Behavioral tests to assess the locomotion deficits were performed after the lesion. At the end of the experiment, animals were sacrificed and the spinal cord was collected for histopathological analysis. […] Histological assessment of the tissue at the site of injury was also made in both the drug treated and untreated group. In particular, subsequent to the behavioral measurement, spinal cord tissue from each animal was obtained and serial transverse tissue sections were stained with either anti-neurofilament antibody or antibodies specific for the inflammatory markers, tumor necrosis factor alpha (TNFα) and for the inducible form of nitric oxide synthetase (iNOS), followed by incubation with Alexa Fluor®-conjugated secondary antibodies.
Female rats (Sprague-Dawley, 250-300 g) were purchased from Charles River. One week before spinal cord injury, the animals were both trained and had baseline measures taken on a locomotor behavioral test, the BBB test (Beattie Basso Bresnahan method) (Basso, D. M. et al. (1995), J. Neurotrauma 12(1): 1-21).
The BBB score is a 21-point scale representing 21 stages of locomotor recovery after spinal cord injury. The scale is based on unique combinations of scored behaviors, ranked according to time of appearance after injury. The score can be divided into three parts: from 0-8, the scores emphasize voluntary movements of hindlimb joints; from 8-14, the scores represent standing and stepping with progressively better forelimb-hindlimb coordination; from 15-21, the scores indicate greater strength and better foot placement and balance. […]

[3] = system: contused spinal cord injury; test: Spinal cord injury, contusion model, BBB locomotor score; format: in vivo, Sprague-Dawley rats; conditions: SCI Study No. 4; 14 day contusion; rats; 20 mg/kg BID i.p., 75% PEG200 formulation
Procedure: as §1, with “In particular, subsequent to the behavioral measurement, spinal cord tissue from each animal was obtained and serial transverse tissue sections were stained with either anti-neurofilament antibody or antibodies specific for the inflammatory markers, tumor necrosis factor alpha (TNFα) and for the inducible form of nitric oxide synthetase (iNOS), followed by incubation with Alexa Fluor®-conjugated secondary antibodies.” left out
The BBB score is a 21-point scale representing 21 stages of locomotor recovery after spinal cord injury. The scale is based on unique combinations of scored behaviors, ranked according to time of appearance after injury. […]

[4] = Brain-blood distribution of Compound A in the rat; format: in vivo; conditions: brain / whole blood, single po dose 30 mg/kg, n = 5, read-out: Brain/Blood Ratio (Mean ± SD)
Procedure: Blood-brain distribution of Compound A was assessed in the mouse, rat, and squirrel monkey by determining the concentrations of Compound A in blood and brain tissue at specific times post dose. Rats and mice received a single po dose of 30 mg/kg. The monkeys received a twice-daily 10 mg/kg po dose of Compound A for a total of 5 weeks prior to sacrifice. Brain to blood ratios for Compound A, as shown below in Table 4, show high penetration of the blood-brain barrier.

CC(=O)Nc1ccc(C(=O)NC(C)(C)C)cc1 [Compound A, N-tert-butyl-4-acetamidobenzamide]
solubility in 9% Cremophor EL, 1% ETOH and 90% saline ([1]; 9% Cremophor EL, 1% ETOH, 90% saline vehicle): quite soluble
solubility in 75% PEG-200 ([1]; 75% PEG-200 vehicle): not soluble
neurological function, BBB score ([2]; SCI Study No. 1, 14 day dorsal hemisection (1.5 mm), i.p. BID 5 days, 75% PEG200 formulation): significant improvement in neurological function
neurological function, BBB score ([2]; SCI Study No. 2, 21 day over dorsal hemisection (2 mm), 20 mg/kg BID i.p. 5 days, 75% PEG200 formulation): significant improvement in neurological function
neurological function, BBB score ([2]; SCI Study No. 3, 5 week over dorsal hemisection, 20 mg/kg BID i.p. 5 days, 50% PEG400/25% ETOH/25% dH2O, 20 mg/kg): significant improvement in neurological function; also recorded: robust acute and long-term effects up to 5 weeks
functional neurological outcome, BBB score [3]: no significant effects were observed
Kp at 0.5 h ([4]; 0.5 h post-dose): 0.71 ± 0.03
Kp at 1 h ([4]; 1.0 h post-dose): 0.66 ± 0.02
Kp at 2 h ([4]; 2.0 h post-dose): 0.67 ± 0.03
